Results from patent US20060069151A1, “Novel use of lycopene” (priority 2002, published 2006).

Test system: androgen signalling
Assay: androgen target gene expression in androgen sensitive target organ tissue
Format: in vivo
Details: after administration; no method, species or dose described

CC(C)=CCC/C(C)=C/C=C/C(C)=C/C=C/C(C)=C/C=C/C=C(C)/C=C/C=C(C)/C=C/C=C(\C)CCC=C(C)C [lycopene]
androgen target gene expression in androgen sensitive target organ tissue, as the endpoint and result of androgen signalling: significantly reduced
